“And” between values parts separate entries of the source, which are not always exact repeats. Identical values can stand only once.
Experiments:
Type in all cases: physicochemical
[1] = Extinction in solution with Ni2+ (synthesis examples)
Method: To a solution of 5.5 g (12.1 mmol) Compound E in 200 ml tetrahydrofuran, 100 ml pyridine and 4.8 g (37.2 mmol) N,N-diisopropylethylamine was added 3.0 g (3.17 mmol) 3,6-bis(1-p-t-butylphenylethyl)-2,5-bis(N-n-dodecylchloroformamidomethyl)benzoquinone (see U.S. Pat. No. 4,204,870, Col. 31). After stirring for 1 hour, an additional 2.5 g (2.64 mmol) of the acid chloride is added and the reaction stirred 28 hours at room temperature. The crude reaction mixture was concentrated to ca. 100 ml in vacuo at 40° C. and the residue was partitioned between ethyl acetate and 3 N HCl. The layers were separated, the organic phase washed with 3 N HCl (until washings were acidic), water and saturated sodium chloride solution. After drying (MgSO4) the organic phase was evaporated in vacuo and the residue recrystallized twice from 350-400 ml ethanol. Yield 7.5 g (72 percent) of yellow solid: ε^550 =13.0×10^4 (3:1 dioxane-pH 6 buffer+excess Ni^2+).
A solution of 5.0 g (31.4 mmol) quinoline-5,8-quinone [T. Urbanski and S. Krzyzanowski, Roczniki Chem., 27, 390 (1953); Chem. Abstr., 49, 1041b (1955)] in 50 ml ethyl alcohol and 100 ml tetrahydrofuran was chilled to <5° C. Concentrated HCl (1 ml) and a cold slurry of 10.0 g (31.8 mmol) 3-chloro-5-(m-hydroxyphenylsulfamoyl)-7-pyridylhydrazine in 100 ml ethyl alcohol/0.5 ml concentrated HCl were added in that order. […]

[2] = Comparative spectra on mordanted strips (Example 2); conditions: 2:1 nickel complex on mordanted strip; for HBW: band width at half Dmax; for λmax: wavelength(s) at actual Dmax
Description: The absorption envelope of each of the metallized dyes is described by (1) the wavelength(s), λmax, at the actual Dmax, (2) the λ1/2 which is the mean of the wavelength limits of the absorption envelope at half the maximum density, and (3) the halfband width (HBW) which is the band width at half the Dmax. A narrow HBW generally designates a purer hue.

[3] = Dye diffusion, gel pad test; conditions: 0.1 M KOH, 1.3×10^-3 M dye
Description: (§1) The released dyes in Table I were also subjected to the conditions of two different dye diffusion tests. One, the "solution test" involved dissolving the dye in a viscous composition and transferring it through a receiving element which contains an opaque and reflecting layer in addition to the mordant layer. The other, a "gel pad test" involved imbibing the dye from solution into a thick gelatin layer, and then transferring it by direct lamination to the same receiving element which had been preswollen by soaking 5 minutes in a solution of […].
(§2) A transparent poly(ethylene terephthalate) film support coated with
(§3) (3) an overcoat layer of gelatin (4.3).
A donor element, containing a thick pad of deionized acid-processed gelatin (26 g/m^2) hardened with 2 percent bis(vinylsulfonylmethyl)ether, was imbibed with a solution of 0.1 M in potassium hydroxide and 1.3×10^-3 M in dye. The pad was soaked to full penetration, surface wiped, and then laminated in direct contact to the above receiving element which had been presoaked for 5 minutes at 0.1 M KOH. The t-1/2 of dye transfer was obtained as in the solution test.

[4] = Dye diffusion, solution test; conditions: pH 13.4, 0.0025 M dye
Description: as §1, §2, §3
The viscous composition was prepared from 46.2 g potassium hydroxide and 54 g carboxymethylcellulose dissolved in 1200 ml water. […] Measurement of the rate of dye diffusion was commenced at the point at which half of the laminate had passed through the rollers. The appearance of dye on the mordant was measured at λmax as diffuse reflection density vs. time. The reflection density was converted to transmission density by computer with the aid of a mathematical relation derived from a previous calibration. A plot of transmission density, which is proportional to concentration vs. time, was derived; and the value of t-1/2 of dye transfer, the time in seconds required to obtain one-half of the maximum transmission density, calculated.

[5] = Light stability (percent fade after HID xenon arc irradiation); conditions: 10 days HID 6000 W xenon arc, 50,000 lux, Wratten 2B filter, approx. 38° C.
Description: An alternative receiving element was used with the premetallized dye-complexes. It comprised a poly(ethylene terephthalate) film support having thereon a layer of gelatin (1.1 g/m^2) and a mordant layer of poly(styrene-co-1-vinylimidazole-co-3-benzyl-1-vinylimidazolium chloride (50:40:10) (4.5 g/m^2) and gelatin (2.2 g/m^2).
The above receiving elements at pH 7 were then subjected to 10 days irradiation by a high intensity daylight (HID), 6000 W Xenon arc lamp, the sample receiving 50,000 lux through a Wratten 2B (ultraviolet) filter at approximately 38° C. and low humidity. The percent fade represents the loss in density at λmax after irradiation.

[6] = Spectra of Ni-dye complexes in solution; conditions: 3:1 dioxane:water, pH 7, excess nickel ion; for Solution HBW of Ni-dye complex: half band width
Description: The receiver was removed from the dye solution, washed in distilled water, placed in a pH 7.0 buffer solution and dried. Transmission spectra obtained on each sample of the mordanted dyes were normalized by computer to a density of 1.0. The characteristic wavelength of the dye, λ1/2 in nm, is the mean of the wavelength limits of the absorption envelope at half the maximum density. The HBW ("half band width") in nm is the range or distance between those limits. The dye solution spectrum in 3:1 dioxane:water at pH 7 in the presence of excess nickel ion is also given.

[7] = Transmission spectra of Ni-dye complexes on mordanted receiving element (Example 1); conditions: pH 7.0 buffer
[8] = premetallized compound, alternative receiving element
[9] = nickel sulfate/gelatin + poly(4-vinylpyridine)/gelatin mordant receiver, normalized to density 1.0

In the case of `CCCCCCCCCCCCN(CC1=C(C(C)c2ccc(C(C)(C)C)cc2)C(=O)C(CN(CCCCCCCCCCCC)C(=O)Oc2cccc(NS(=O)(=O)c3cnc(N=Nc4ccc(O)c5cccnc45)c(Cl)c3)c2)=C(C(C)c2ccc(C(C)(C)C)cc2)C1=O)C(=O)Oc1cccc(NS(=O)(=O)c2cnc(N=Nc3ccc(O)c4cccnc34)c(Cl)c2)c1` (stereo not drawn) [Compound 3], the “ε^550” value ([1]; 3:1 dioxane-pH 6 buffer + excess Ni^2+) is reported as 13.0×10^4.
“2:1 nickel complex of 6-(2-carboxy-4-chlorphenylazo)-2,3-pyridinediol [Control Dye 3]” showed a λ1/2 [2] of 545 nm, an HBW [2] of 86 nm and a λmax [2] of 555 nm.
With `CN(c1ccccc1)c1ccc(N=Nc2ccc(S(N)(=O)=O)cn2)c([O-])c1.CN(c1ccccc1)c1ccc(N=Nc2ccc(S(N)(=O)=O)cn2)c([O-])c1.[Ni+2]` [Control Dye 2, 2:1 nickel complex of 2-(5-sulfamoyl-2-pyridylazo)-5-(N-methylanilino)phenol] the “Dye diffusion t1/2, Gel Pad” value [3] was 265 s, the λ1/2 [2] was 540 nm and the HBW [2] was 116 nm. The λmax [2] was 540 nm and 572 nm and the “Dye diffusion t1/2, Soln.” value [4] was 45 s.
For `NS(=O)(=O)c1cccc(NS(=O)(=O)c2cnc(N=Nc3ccc(O)c4cccnc34)c(Cl)c2)c1` [A], the “Dye diffusion t1/2, Gel Pad” value [3] was 183 s, the “Dye diffusion t1/2, Gel Pad” value ([3]; listed as A') was 235 s and the “Dye diffusion t1/2, Soln.” value [4] was 41 s. For the same compound, the “% Fade (loss in density at λmax)” value ([5]; low humidity, pH 7) was 2%, the “% Fade (loss in density at λmax)” value [5, 8] was 3% and the “Solution λ1/2 of Ni-dye complex” value [6] was 548 nm. For the same compound, the “Solution HBW of Ni-dye complex” value [6] was 70 nm, the “Solution HBW of Ni-dye complex” value ([6]; listed as A') was 68 nm and the “Solution λ1/2 of Ni-dye complex” value ([6]; listed as A') was 545 nm. The “Mordant HBW of Ni-dye complex” value [7, 9] was 76 nm, the “Mordant λ1/2 of Ni-dye complex” value [7, 9] was 553 nm and the “Mordant HBW of Ni-dye complex” value [7, 8] was 85 nm. The “Mordant λ1/2 of Ni-dye complex” value [7, 8] was 555 nm.
With `CC(C)NS(=O)(=O)c1cnc(N=Nc2ccc(O)c3cccnc23)c(Cl)c1` [Compound D] the “Dye diffusion t1/2, Soln.” value [4] was 44 s, the “Solution λ1/2 of Ni-dye complex” value [6] was 543 nm and the “Solution HBW of Ni-dye complex” value [6] was 68 nm. For the same compound, the “Mordant HBW of Ni-dye complex” value [7, 9] was 66 nm and the “Mordant λ1/2 of Ni-dye complex” value [7, 9] was 547 nm.
For `O=S(=O)(Nc1ccccc1)c1cnc(N=Nc2ccc(O)c3cccnc23)c(Cl)c1` [G], the “Dye diffusion t1/2, Soln.” value [4] was 81 s, the “% Fade (loss in density at λmax)” value ([5]; low humidity, pH 7) was 0% and the “Solution λ1/2 of Ni-dye complex” value [6] was 542 nm. For the same compound, the “Solution HBW of Ni-dye complex” value [6] was 65 nm, the “Mordant HBW of Ni-dye complex” value [7, 9] was 70 nm and the “Mordant λ1/2 of Ni-dye complex” value [7, 9] was 548 nm.
In the case of `COc1cc(S(=O)(=O)Nc2cccc(O)c2)cnc1N=Nc1ccc(O)c2cccnc12` [J], the “Dye diffusion t1/2, Soln.” value [4] is reported as 40 s, the “% Fade (loss in density at λmax)” value ([5]; low humidity, pH 7) is reported as 0% and the “Solution λ1/2 of Ni-dye complex” value [6] is reported as 559 nm. The “Solution HBW of Ni-dye complex” value [6] was 78 nm, the “Mordant HBW of Ni-dye complex” value [7, 9] was 87 nm and the “Mordant λ1/2 of Ni-dye complex” value [7, 9] was 568 nm.
With “2:1 nickel complex of 2-(2-pyridylazo)-4-sulfamoyl-1-naphthol [Control Dye 1]” the “Dye diffusion t1/2, Gel Pad” value [3] was 281 s, the λ1/2 [2] was 537 nm and the HBW [2] was 101 nm. For the same compound, the λmax [2] was 553 nm and 567 nm and the “Dye diffusion t1/2, Soln.” value [4] was 49 s.
In the case of `COc1cc(S(=O)(=O)NC(C)(C)C)cnc1N=Nc1ccc(O)c2cccnc12` [Compound C], the λ1/2 [2] is reported as 545 nm, the HBW [2] is reported as 67 nm and the λmax [2] is reported as 560 nm. The “Dye diffusion t1/2, Soln.” value [4] was 37 s, the “Solution λ1/2 of Ni-dye complex” value [6] was 560 nm and the “Solution HBW of Ni-dye complex” value [6] was 79 nm. For the same compound, the “Mordant HBW of Ni-dye complex” value [7, 9] was 82 nm and the “Mordant λ1/2 of Ni-dye complex” value [7, 9] was 563 nm.
In the case of `CC(C)NS(=O)(=O)c1cnc(N=Nc2ccc(O)c3cc(C(=O)Nc4cccc(O)c4)c(Cl)nc23)c(Cl)c1` [H], the “Dye diffusion t1/2, Soln.” value [4] is reported as 49 s, the “% Fade (loss in density at λmax)” value ([5]; low humidity, pH 7) is reported as 7% and the “Solution λ1/2 of Ni-dye complex” value [6] is reported as 548 nm. For the same compound, the “Solution HBW of Ni-dye complex” value [6] was 63 nm, the “Mordant HBW of Ni-dye complex” value [7, 9] was 72 nm and the “Mordant λ1/2 of Ni-dye complex” value [7, 9] was 549 nm.
For `CN(c1cccc(O)c1)S(=O)(=O)c1cnc(N=Nc2ccc(O)c3cccnc23)c(Cl)c1` [F], the “Dye diffusion t1/2, Soln.” value [4] was 69 s, the “% Fade (loss in density at λmax)” value ([5]; low humidity, pH 7) was 0% and the “Solution λ1/2 of Ni-dye complex” value [6] was 543 nm. For the same compound, the “Solution HBW of Ni-dye complex” value [6] was 68 nm, the “Mordant HBW of Ni-dye complex” value [7, 9] was 66 nm and the “Mordant λ1/2 of Ni-dye complex” value [7, 9] was 546 nm.
In the case of `O=S(=O)(Nc1cccc(O)c1)c1cnc(N=Nc2ccc(O)c3cccnc23)c(Cl)c1` [Compound E, 8-[3-Chloro-5-(m-hydroxyphenylsulfamoyl)-2-pyridylazo]-5-quinolinol], the “Dye diffusion t1/2, Soln.” value [4] is reported as 39 s, the “% Fade (loss in density at λmax)” value ([5]; low humidity, pH 7) is reported as 1% and the “Solution λ1/2 of Ni-dye complex” value [6] is reported as 544 nm. The “Solution HBW of Ni-dye complex” value [6] was 65 nm, the “ε^550” value ([1]; 3:1 dioxane-pH 6 buffer + Ni^2+) was 6.6×10^4 and the “Mordant HBW of Ni-dye complex” value [7, 9] was 70 nm. For the same compound, the “Mordant λ1/2 of Ni-dye complex” value [7, 9] was 550 nm.
In the case of `NS(=O)(=O)c1cnc(N=Nc2ccc(O)c3cccnc23)c(Cl)c1` [B], the “Dye diffusion t1/2, Gel Pad” value [3] is reported as 108 s, the “Dye diffusion t1/2, Gel Pad” value ([3]; listed as B') is reported as 161 s and the “Dye diffusion t1/2, Soln.” value [4] is reported as 31 s. The “% Fade (loss in density at λmax)” value ([5]; low humidity, pH 7) was 0%, the “% Fade (loss in density at λmax)” value [5, 8] was 4% and the “Solution λ1/2 of Ni-dye complex” value [6] was 543 nm. The “Solution HBW of Ni-dye complex” value [6] was 65 nm, the “Solution HBW of Ni-dye complex” value ([6]; listed as B') was 68 nm and the “Solution λ1/2 of Ni-dye complex” value ([6]; listed as B') was 544 nm. The “Mordant HBW of Ni-dye complex” value [7, 9] was 67 nm, the “Mordant λ1/2 of Ni-dye complex” value [7, 9] was 545 nm and the “Mordant HBW of Ni-dye complex” value [7, 8] was 71 nm. The “Mordant λ1/2 of Ni-dye complex” value [7, 8] was 546 nm.
